Where “and” joins values, the source holds several entries; their conditions need not be identical. Identical values can stand only once. Like-named read-outs stand apart in the source and are kept apart here.
How the values were obtained:
[1] = Stability in cryopreserved hepatocytes, human; format: in vitro ADME; settings: for Compound Remaining (% of 0 min): Hepatocyte Stability Human, single replicates
Procedure: (§1) The final incubation volume was 500 μL. Two control compounds (verapamil and donepezil) were included for each microsomal species, along with the appropriate vehicle control. The reactions were terminated by transferring 50 μL of incubate to 100 μL methanol containing an internal standard (metoprolol) at appropriate time points (0, 10, 20, 40, 60, and 120 min for the test compound and 0, 5, 10, 20, 40, and 60 min for the control compounds). The termination plates were centrifuged at 4000 x g at 4°C for 30 min to precipitate the protein. The supernatants were then collected for analysis, and LC-MS/MS was used for detection purposes. The system consisted of an Acquity™ Binary Solvent Manager, Acquity™ 4-position heated column manager, 2777 Ultra High Pressure Autosampler, and a Xevo-TQ MS triple quadrupole mass spectrometer (Waters Ltd., Herts, UK). This process was carried out twice.

[2] = Metabolite profiling, rat hepatocytes; format: in vitro ADME; settings: 10 μM CPL207280, 120 min, ND = not detected
Procedure: (§2) Suspensions of cryopreserved human, rat, and monkey hepatocytes were pooled from a minimum of three individuals. All cryopreserved hepatocytes were purchased from a commercial supplier. […] The cell density was 0.5 ×10^6 viable cells/mL. The final DMSO concentration during the incubation was 0.25%. Control incubations were performed in lysed cells to reveal any non-enzymatic degradation. Two control compounds were identified in each species. Samples (50 μL) were removed from the incubation mixture at 0, 10, 20, 40, 60, and 120 min and added to methanol containing an internal standard (100 μL) to stop the reaction. The samples were centrifuged (4000 x g at 4°C for 30 min) and the supernatants at each time point were pooled for analysis by LC MS/MS using Cyprotex generic methods. Following hepatocyte stability assays, the samples were utilized for metabolite profiling. […] Metabolites were characterized using a mass spectrometer comprising Waters Xevo QT of G2-S, Acquity Binary Solvent Manager, Acquity Column Manager, and 2777 Autosampler.

[3] = Stability in cryopreserved hepatocytes, mouse; format: in vitro ADME; settings: for Compound Remaining (% of 0 min): Hepatocyte Stability Mouse, single replicates
Procedure: as §1

[4] = Metabolite profiling, human hepatocytes; format: in vitro ADME
Procedure: as §2

HepaRG spheroids = assay: HepaRG 3D spheroids, cell and mitochondrial health markers, 14 days; settings: for AC50: Homo sapiens, HepaRG
Procedure: Hepatic spheroids were formed by seeding HepaRG™ cells into round-bottom ultra-low adhesion 96-well spheroid plates (Corning®) in 3D liver media with 0.5% DMSO, 100 U/mL penicillin, and 100 mg/L streptomycin. Cells were incubated at 37°C and 5% CO2 until spheroid formation and then compound-treated. The test compound was diluted in the vehicle, and serial dilutions were made in a 0.5% vehicle in HepaRG™ induction media. […] L-buthionine sulfoximine was used as positive control for GSH content, whereas rotenone was simultaneously used as a positive control for mitochondrial dysfunction and ATP content. At the end of the incubation period, the cells were loaded with the relevant dye for each cell health marker: DNA structure–Hoescht, GSH content–mBCL, ROS formation–DHE, mitochondrial dysfunction–MitoTracker, and cellular ATP content–CellTiter-Glo®, Promega. The plate was then scanned using an automated confocal fluorescent cellular imager, ArrayScan® XTI (Thermo Scientific Cellomics) at 37°C and 5% CO2. Further, the cellular ATP content was measured using CellTiter-Glo® (Promega, USA).

[5] = Repeat-dose study in healthy Cynomolgus monkeys, safety (14 and 56 days)
NTCP = target: T1, NTCP (Homo sapiens, UniProt Q14973); settings: read-out: Inhibition of NTCP, previously reported IC50; cited from earlier work
T1 construct: expressed in transfected cells; host or cells: HEK cells
T1 sequence (Q14973 1-349): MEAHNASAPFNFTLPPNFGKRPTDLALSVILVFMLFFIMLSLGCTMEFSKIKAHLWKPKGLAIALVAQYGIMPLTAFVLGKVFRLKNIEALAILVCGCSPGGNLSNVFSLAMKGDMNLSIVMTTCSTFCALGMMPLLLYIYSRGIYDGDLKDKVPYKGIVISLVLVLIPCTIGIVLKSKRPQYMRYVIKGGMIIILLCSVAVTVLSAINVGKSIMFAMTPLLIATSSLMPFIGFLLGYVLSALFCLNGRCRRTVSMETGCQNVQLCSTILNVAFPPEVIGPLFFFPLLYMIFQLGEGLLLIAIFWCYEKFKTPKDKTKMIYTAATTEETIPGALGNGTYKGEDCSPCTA

[6] = phase III studies, within six months; cited from earlier work
[7] = cryopreserved hepatocytes (suspension), Human hepatocytes, mean n = 2
[8] = cryopreserved hepatocytes (suspension), Mouse (CD) hepatocytes, mean n = 2

SMILES: CC#C[C@@H](CC(=O)O)c1ccc(OCC(C)=C(C)C)cc1 [CPL207280]
- Compound Remaining (% of 0 min) ([1]; 0 min): 100 % of 0 min
- Compound Remaining (% of 0 min) ([1]; 10 min): 73.2 % of 0 min and 74.0 % of 0 min
- Compound Remaining (% of 0 min) ([1]; 20 min): 42.2 % of 0 min and 46.1 % of 0 min
- Compound Remaining (% of 0 min) ([1]; 40 min): 20.6 % of 0 min and 16.0 % of 0 min
- Compound Remaining (% of 0 min) ([1]; 60 min): 10.5 % of 0 min and 7.67 % of 0 min
- Compound Remaining (% of 0 min) ([1]; 120 min): 3.07 % of 0 min and 1.62 % of 0 min
- half-life at 3 μM [1, 7]: 0.283 h
- microsomal CLint at 3 μM [1, 7]: 82.8 µL/min/mg
- rat % of parent at 120 min [2]: 57.6%
- Compound Remaining (% of 0 min) ([3]; 0 min): 100 % of 0 min
- Compound Remaining (% of 0 min) ([3]; 10 min): 92.6 % of 0 min and 92.7 % of 0 min
- Compound Remaining (% of 0 min) ([3]; 20 min): 92.0 % of 0 min and 89.0 % of 0 min
- Compound Remaining (% of 0 min) ([3]; 40 min): 86.8 % of 0 min and 80.9 % of 0 min
- Compound Remaining (% of 0 min) ([3]; 60 min): 79.1 % of 0 min and 85.2 % of 0 min
- Compound Remaining (% of 0 min) ([3]; 120 min): 81.9 % of 0 min and 77.1 % of 0 min
- half-life at 3 μM [3, 8]: 6.73 h
- microsomal CLint at 3 μM [3, 8]: 3.46 µL/min/mg
- number of metabolites produced by human hepatocytes ([4]; human hepatocytes, 10 μM): 12
- human % of parent at 60 min ([4]; human hepatocytes, 10 μM CPL207280, 60 min, ND = not detected): 8.49%
- number of metabolites identified ([4]; in all species (humans, rats, mice, monkeys, dogs), hepatocytes, 10 μM): 23
- Acyl glucuronide presence in human hepatocytes ([4]; summary table): No
- Cellular ATP Mean Plotted Value (HepaRG spheroids; CONC 0.0457 uM, TIMEPOINT 336): 0.883
- DNA structure Mean Plotted Value (HepaRG spheroids; CONC 0.0457 uM, TIMEPOINT 336): 1.26
- Glutathione content Mean Plotted Value (HepaRG spheroids; CONC 0.0457 uM, TIMEPOINT 336): 0.866
- Mitochondrial mass Mean Plotted Value (HepaRG spheroids; CONC 0.0457 uM, TIMEPOINT 336): 0.982
- Mitochondrial membrane potential Mean Plotted Value (HepaRG spheroids; CONC 0.0457 uM, TIMEPOINT 336): 1.25
- Oxidative stress Mean Plotted Value (HepaRG spheroids; CONC 0.0457 uM, TIMEPOINT 336): 1.15
- Spheroid count Mean Plotted Value (HepaRG spheroids; CONC 0.0457 uM, TIMEPOINT 336): 1
- Spheroid size Mean Plotted Value (HepaRG spheroids; CONC 0.0457 uM, TIMEPOINT 336): 0.924
- Cellular ATP Mean Plotted Value (HepaRG spheroids; CONC 0.137 uM, TIMEPOINT 336): 1.01
- DNA structure Mean Plotted Value (HepaRG spheroids; CONC 0.137 uM, TIMEPOINT 336): 1.14
- Glutathione content Mean Plotted Value (HepaRG spheroids; CONC 0.137 uM, TIMEPOINT 336): 1.11
- Mitochondrial mass Mean Plotted Value (HepaRG spheroids; CONC 0.137 uM, TIMEPOINT 336): 0.911
- Mitochondrial membrane potential Mean Plotted Value (HepaRG spheroids; CONC 0.137 uM, TIMEPOINT 336): 0.948
- Oxidative stress Mean Plotted Value (HepaRG spheroids; CONC 0.137 uM, TIMEPOINT 336): 1.02
- Spheroid count Mean Plotted Value (HepaRG spheroids; CONC 0.137 uM, TIMEPOINT 336): 1
- Spheroid size Mean Plotted Value (HepaRG spheroids; CONC 0.137 uM, TIMEPOINT 336): 0.943
- Cellular ATP Mean Plotted Value (HepaRG spheroids; CONC 0.412 uM, TIMEPOINT 336): 1.03
- DNA structure Mean Plotted Value (HepaRG spheroids; CONC 0.412 uM, TIMEPOINT 336): 1.12
- Glutathione content Mean Plotted Value (HepaRG spheroids; CONC 0.412 uM, TIMEPOINT 336): 1.09
- Mitochondrial mass Mean Plotted Value (HepaRG spheroids; CONC 0.412 uM, TIMEPOINT 336): 1
- Mitochondrial membrane potential Mean Plotted Value (HepaRG spheroids; CONC 0.412 uM, TIMEPOINT 336): 0.994
- Oxidative stress Mean Plotted Value (HepaRG spheroids; CONC 0.412 uM, TIMEPOINT 336): 1.02
- Spheroid count Mean Plotted Value (HepaRG spheroids; CONC 0.412 uM, TIMEPOINT 336): 1
- Spheroid size Mean Plotted Value (HepaRG spheroids; CONC 0.412 uM, TIMEPOINT 336): 0.942
- Cellular ATP Mean Plotted Value (HepaRG spheroids; CONC 3.7 uM, TIMEPOINT 336): 0.907
- DNA structure Mean Plotted Value (HepaRG spheroids; CONC 3.7 uM, TIMEPOINT 336): 0.692
- Glutathione content Mean Plotted Value (HepaRG spheroids; CONC 3.7 uM, TIMEPOINT 336): 0.924
- Mitochondrial mass Mean Plotted Value (HepaRG spheroids; CONC 3.7 uM, TIMEPOINT 336): 0.944
- Mitochondrial membrane potential Mean Plotted Value (HepaRG spheroids; CONC 3.7 uM, TIMEPOINT 336): 0.773
- Oxidative stress Mean Plotted Value (HepaRG spheroids; CONC 3.7 uM, TIMEPOINT 336): 1.02
- Spheroid count Mean Plotted Value (HepaRG spheroids; CONC 3.7 uM, TIMEPOINT 336): 1
- Spheroid size Mean Plotted Value (HepaRG spheroids; CONC 3.7 uM, TIMEPOINT 336): 0.935
- Cellular ATP Mean Plotted Value (HepaRG spheroids; CONC 33.3 uM, TIMEPOINT 336): 0.845
- DNA structure Mean Plotted Value (HepaRG spheroids; CONC 33.3 uM, TIMEPOINT 336): 0.889
- Glutathione content Mean Plotted Value (HepaRG spheroids; CONC 33.3 uM, TIMEPOINT 336): 0.907
- Mitochondrial mass Mean Plotted Value (HepaRG spheroids; CONC 33.3 uM, TIMEPOINT 336): 0.989
- Mitochondrial membrane potential Mean Plotted Value (HepaRG spheroids; CONC 33.3 uM, TIMEPOINT 336): 0.908
- Oxidative stress Mean Plotted Value (HepaRG spheroids; CONC 33.3 uM, TIMEPOINT 336): 1.13
- Spheroid count Mean Plotted Value (HepaRG spheroids; CONC 33.3 uM, TIMEPOINT 336): 1
- Spheroid size Mean Plotted Value (HepaRG spheroids; CONC 33.3 uM, TIMEPOINT 336): 0.953
- Cellular ATP Mean Plotted Value (HepaRG spheroids; CONC 100 uM, TIMEPOINT 336): 0.491
- DNA structure Mean Plotted Value (HepaRG spheroids; CONC 100 uM, TIMEPOINT 336): 0.692
- Glutathione content Mean Plotted Value (HepaRG spheroids; CONC 100 uM, TIMEPOINT 336): 0.767
- Mitochondrial mass Mean Plotted Value (HepaRG spheroids; CONC 100 uM, TIMEPOINT 336): 0.865
- Mitochondrial membrane potential Mean Plotted Value (HepaRG spheroids; CONC 100 uM, TIMEPOINT 336): 0.94
- Oxidative stress Mean Plotted Value (HepaRG spheroids; CONC 100 uM, TIMEPOINT 336): 1.13
- Spheroid count Mean Plotted Value (HepaRG spheroids; CONC 100 uM, TIMEPOINT 336): 1
- Spheroid size Mean Plotted Value (HepaRG spheroids; CONC 100 uM, TIMEPOINT 336): 0.861
- Cellular ATP MEC (HepaRG spheroids; HepaRG spheroid, TIMEPOINT 336): 24.8 (NS) uM
- Cellular ATP MR (% @ concentration) (HepaRG spheroids; HepaRG spheroid, TIMEPOINT 336, at the concentration (uM) given): 48%
- Cellular ATP MR (HepaRG spheroids; HepaRG spheroid, TIMEPOINT 336, plotted value at the concentration given): 0.491
- AC50 (HepaRG spheroids; 336 h, read-out: Estimated AC50 (95% CI), Cellular ATP): > 100 µM
- AC50 (HepaRG spheroids; 336 h, read-out: Estimated AC50 (95% CI), DNA structure): > 100 µM
- AC50 (HepaRG spheroids; 336 h, read-out: Estimated AC50 (95% CI), Glutathione content): > 100 µM
- AC50 (HepaRG spheroids; 336 h, read-out: Estimated AC50 (95% CI), Mitochondrial mass): > 100 µM
- AC50 (HepaRG spheroids; 336 h, read-out: Estimated AC50 (95% CI), Mitochondrial membrane potential): > 100 µM
- AC50 (HepaRG spheroids; 336 h, read-out: Estimated AC50 (95% CI), Oxidative stress): > 100 µM
- AC50 (HepaRG spheroids; 336 h, read-out: Estimated AC50 (95% CI), Spheroid count): > 100 µM
- AC50 (HepaRG spheroids; 336 h, read-out: Estimated AC50 (95% CI), Spheroid size): > 100 µM
- AC50 (HepaRG spheroids; read-out: DNA structure AC50): > 100 µM
- AC50 (HepaRG spheroids; read-out: Glutathione content AC50): > 100 µM
- AC50 (HepaRG spheroids; read-out: Mitochondrial mass AC50): > 100 µM
- AC50 (HepaRG spheroids; read-out: Mitochondrial membrane potential AC50): > 100 µM
- AC50 (HepaRG spheroids; read-out: Oxidative stress AC50): > 100 µM
- AC50 (HepaRG spheroids; read-out: Spheroid count AC50): > 100 µM
- AC50 (HepaRG spheroids; read-out: Spheroid size AC50): > 100 µM
- Mitochondria Injury (HepaRG spheroids; summary comparison CPL207280 vs TAK-875): <
- liver safety parameters ([5]; 50–250 mg/kg/day, 14 and 56 days): No alteration of liver safety parameters
- hepatocyte hypertrophy and liver mass ([5]; after the 14 and 56-day treatment): neither hypertrophy nor increased liver mass was observed

SMILES: Cc1cc(OCCCS(C)(=O)=O)cc(C)c1-c1cccc(COc2ccc3c(c2)OC[C@H]3CC(=O)O)c1 [TAK-875, fasiglifam, reference compound]
- IC50 (NTCP): 4.6 µM
- study participants with serum ALT elevations > 3 × ULN [6]: 2.7%

Source: article PMC8459971, “Evaluation of the hepatotoxicity of the novel GPR40 (FFAR1) agonist CPL207280 in the rat and monkey” (PLoS ONE, 2021)
